# Experiments:
# Experiment in all cases: ≥ marks a high value that may be exact or a test limit, other limits are often not marked, values filed in µg/mL are converted to µM
# [1] = test system: Enterococcus faecalis ATCC 29212
# [2] = test system: Listeria monocytogenes ATCC 19114
# [3] = test system: Listeria monocytogenes ATCC 19115
# [4] = test system: Listeria monocytogenes ATCC 7644
# [5] = test system: Listeria monocytogenes NCTC 18890
# Listeria monocytogenes = test system: Listeria monocytogenes
# [6] = test system: Pseudomonas aeruginosa ATCC 15442
# [7] = test system: Staphylococcus aureus ATCC 25923
# [8] = test system: Staphylococcus aureus ATCC 29213
# [9] = test system: Staphylococcus aureus ATCC 6538
# [10] = test system: Staphylococcus epidermidis ATCC 35984
# [11] = test system: Bacillus amyloliquefaciens ATCC 23842
# [12] = test system: Bacillus cereus ATCC 14579
# [13] = test system: Bacillus licheniformis ATCC 14580
# [14] = test system: Bacillus subtilis ATCC 6051
# [15] = test system: Enterococcus faecalis 1F-1
# [16] = test system: Enterococcus faecium 5F-10
# [17] = test system: Escherichia coli ATCC 25922
# [18] = test system: Proteus mirabilis ATCC 35659
# [19] = test system: Pseudomonas aeruginosa PAO1
# [20] = test system: Salmonella enterica ATCC H9812
# [21] = test system: Bacillus subtilis ATCC 6633
# [22] = test system: Escherichia coli ATCC 10536
# [23] = test system: Escherichia coli DH5alpha
# [24] = test system: Staphylococcus aureus ATCC 9144
# [25] = test system: Klebsiella pneumoniae ATCC 13883
# [26] = test system: Staphylococcus aureus JE2
# [27] = test system: Escherichia coli ATCC 15597
# [28] = test system: Klebsiella pneumoniae NCTC 5055
# [29] = test system: Micrococcus luteus ATCC 49732
# [30] = test system: Pseudomonas aeruginosa ATCC 27853
# [31] = test system: Salmonella typhimurium DA6192
# [32] = test system: Legionella pneumophila Lens
# Escherichia coli J2210 = test system: Escherichia coli J2210
# Escherichia coli JJ2487 = test system: Escherichia coli JJ2487
# Escherichia coli MC1061 = test system: Escherichia coli MC1061
# Escherichia coli O157:H7 = test system: Escherichia coli O157:H7
# [33] = test system: Salmonella enterica subsp. enterica serovar Enteritidis MH91989
# [34] = test system: Salmonella typhimurium SL1344
# Escherichia coli C25 = test system: Escherichia coli C25
smiles,measurement,setting,value
CC(C)C[C@H](NC(=O)[C@H](C)NC(=O)[C@H](Cc1cnc[nH]1)NC(=O)[C@H](Cc1cnc[nH]1)NC(=O)CNC(=O)[C@H](CC(C)C)NC(=O)[C@H](Cc1cnc[nH]1)NC(=O)[C@H](CO)NC(=O)[C@H](C)N)C(=O)N[C@@H](CC(=O)O)C(=O)N[C@@H](Cc1cnc[nH]1)C(=O)N[C@@H](CC(C)C)C(=O)N[C@@H](CC(C)C)C(=O)N[C@@H](CCCCN)C(=O)O [ASHLGHHALDHLLK],MIC,[1],8070 µM
same,MIC,[2],≥ 3230 µM
same,MIC,[3],≥ 3230 µM
same,MIC,[4],≥ 3230 µM
same,MIC,[5],≥ 3230 µM
same,MIC,Listeria monocytogenes,≥ 3230 µM
same,MIC,[6],≥ 8070 µM
same,MIC,[7],8070 µM
same,MIC,[8],8070 µM
same,MIC,[9],8070 µM
same,MIC,[10],≥ 8070 µM
CC(C)C[C@H](NC(=O)[C@H](CC(C)C)NC(=O)[C@H](CCC(=O)O)NC(=O)[C@@H](N)CC(=O)O)C(=O)N[C@@H](CO)C(=O)N[C@@H](CCCN=C(N)N)C(=O)N[C@H](C(=O)O)C(C)C [DELLSRV],MIC,[11],≥ 154 µM
same,MIC,[12],≥ 154 µM
same,MIC,[13],≥ 154 µM
same,MIC,[14],≥ 154 µM
same,MIC,[15],≥ 154 µM
same,MIC,[16],≥ 154 µM
same,MIC,[17],38.5 µM
same,MIC,[18],≥ 154 µM
same,MIC,[19],> 154 µM
same,MIC,[20],≥ 77 µM
same,MIC,[8],> 154 µM
CC[C@H](C)[C@H](NC(=O)CN)C(=O)NCC(=O)N[C@@H](C)C(=O)N[C@H](C(=O)N[C@@H](CC(C)C)C(=O)N[C@@H](CCCCN)C(=O)N[C@H](C(=O)N[C@@H](CC(C)C)C(=O)N[C@H](C(=O)N[C@H](C(=O)NCC(=O)N[C@@H](CC(C)C)C(=O)N1CCC[C@H]1C(=O)N[C@@H](C)C(=O)N[C@@H](C)C(=O)N[C@H](C(=O)N[C@@H](CO)C(=O)N[C@@H](Cc1c[nH]c2ccccc12)C(=O)N[C@H](C(=O)N[C@@H](CCCCN)C(=O)N[C@@H](CCCN=C(N)N)C(=O)N[C@@H](CCCCN)C(=O)N[C@@H](CCCN=C(N)N)C(=O)N[C@@H](CCC(N)=O)C(=O)N[C@@H](CCC(N)=O)C(N)=O)[C@@H](C)CC)[C@@H](C)CC)[C@@H](C)O)[C@@H](C)O)C(C)C)C(C)C [GIGAVLKVLTTGLPAAISWIKRKRQQ],MIC,[21],3.9 µM
same,MIC,[22],4.1 µM
same,MIC,[23],4.2 µM
same,MIC,[24],4.2 µM
CC(C)C[C@H](NC(=O)[C@H](CC(C)C)NC(=O)[C@H](CCCCN)NC(=O)[C@H](CC(C)C)NC(=O)CNC(=O)[C@H](CC(C)C)NC(=O)[C@H](CCCCN)NC(=O)[C@H](CC(C)C)NC(=O)[C@H](CC(C)C)NC(=O)[C@H](CC(C)C)NC(=O)[C@H](CCCCN)NC(=O)[C@H](CC(C)C)NC(=O)CN)C(N)=O [GLKLLLKLGLKLL],MIC,[17],> 25 µM
same,MIC,[25],25 µM
same,MIC,[19],> 25 µM
same,MIC,[26],1.56 µM
CC[C@H](C)[C@H](N)C(=O)N[C@H](C(=O)N[C@@H](CCCCN)C(=O)N[C@@H](CCC(N)=O)C(=O)N[C@H](C(=O)N[C@H](C(=O)N[C@@H](CCCCN)C(=O)N[C@@H](CCC(N)=O)C(=O)N[C@@H](CC(C)C)C(=O)N[C@@H](CC(N)=O)C(=O)N[C@@H](CCCN=C(N)N)C(=O)N[C@@H](CCC(N)=O)C(=O)N[C@H](C(=O)N[C@@H](CCCCN)C(=O)N[C@H](C(=O)N[C@@H](CCC(N)=O)C(=O)N[C@@H](CO)C(=O)N[C@@H](CCCCN)C(=O)O)[C@@H](C)CC)[C@@H](C)O)[C@@H](C)O)[C@@H](C)CC)[C@@H](C)O [ITKQITKQLNRQTKIQSK],MIC,[21],≥ 100 µM
same,MIC,[27],≥ 100 µM
same,MIC,[28],≥ 100 µM
same,MIC,[29],≥ 100 µM
same,MIC,[30],> 100 µM
same,MIC,[31],≥ 100 µM
same,MIC,[9],> 100 µM
CC[C@H](C)[C@H](NC(=O)[C@H](CC(C)C)NC(=O)[C@H](CC(=O)O)NC(=O)[C@@H](NC(=O)[C@@H](NC(=O)[C@H](Cc1ccccc1)NC(=O)[C@H](CCC(N)=O)NC(=O)[C@@H](N)CCSC)[C@@H](C)CC)[C@@H](C)O)C(=O)N[C@@H](CCCCN)C(=O)N[C@@H](CCCCN)C(=O)N[C@@H](C)C(=O)N[C@H](C(=O)N[C@@H](CC(=O)O)C(=O)N[C@H](C(=O)N[C@H](C(=O)N[C@@H](CCCCN)C(=O)NCC(=O)N[C@@H](CC(C)C)C(=O)N[C@@H](Cc1ccccc1)C(=O)NCC(=O)N[C@@H](CC(N)=O)C(=O)N[C@@H](CCCCN)C(=O)O)[C@@H](C)CC)C(C)C)C(C)C [MQFITDLIKKAVDVIKGLFGNK],MIC,[32],1.26 µM
CC[C@H](C)[C@H](NC(=O)[C@H](CCCN=C(N)N)NC(=O)[C@H](CCCN=C(N)N)NC(=O)[C@@H]1CCCN1C(=O)[C@@H]1CCCN1C(=O)[C@H](CCCN=C(N)N)NC(=O)[C@@H]1CCCN1C(=O)[C@H](CCCN=C(N)N)NC(=O)[C@@H]1CCCN1C(=O)[C@H](CCCCN)NC(=O)[C@H](Cc1ccc(O)cc1)NC(=O)[C@@H]1CCCN1C(=O)[C@H](CCCCN)NC(=O)[C@H](CCCCN)NC(=O)[C@H](CC(=O)O)NC(=O)[C@@H](N)C(C)C)C(=O)N[C@@H](Cc1ccc(O)cc1)C(=O)N[C@@H](CC(N)=O)C(=O)N[C@@H](CCCN=C(N)N)C(N)=O [VDKKPYKPRPRPPRRIYNR],MIC,Escherichia coli J2210,0.0821 µM
same,MIC,Escherichia coli JJ2487,0.123 µM
same,MIC,Escherichia coli MC1061,0.0616 µM
same,MIC,Escherichia coli O157:H7,0.644 µM
same,MIC,[33],0.172 µM
same,MIC,[34],0.172 µM
CC[C@H](C)[C@H](NC(=O)CNC(=O)[C@H](CCCN=C(N)N)NC(=O)[C@H](Cc1ccc(O)cc1)NC(=O)[C@@H](NC(=O)[C@H](CCCN=C(N)N)NC(=O)[C@H](Cc1ccccc1)NC(=O)[C@@H](N)Cc1c[nH]c2ccccc12)C(C)C)C(=O)N[C@@H](Cc1ccc(O)cc1)C(=O)N[C@@H](CCCN=C(N)N)C(=O)N[C@@H](CCCN=C(N)N)C(=O)N[C@@H](CCCN=C(N)N)C(N)=O [WFRVYRGIYRRR],MIC,Escherichia coli C25,≥ 72 µM
same,MIC,[7],72 µM

# Reference: DBAASP
